Reference: patent publication EP4667458A1 (Kanaph Therapeutics Inc., priority 2023, dated 2024)
pIC50: −log10 of the molar value.

The compounds below were run against T1, KRAS^G12C::SOS1 (Homo sapiens, UniProt Q07889) (assay: KRAS G12C::SOS1 protein-protein interaction (PPI) inhibition assay (HTRF binding kit)).
T1 sequence (Q07889 1-1333): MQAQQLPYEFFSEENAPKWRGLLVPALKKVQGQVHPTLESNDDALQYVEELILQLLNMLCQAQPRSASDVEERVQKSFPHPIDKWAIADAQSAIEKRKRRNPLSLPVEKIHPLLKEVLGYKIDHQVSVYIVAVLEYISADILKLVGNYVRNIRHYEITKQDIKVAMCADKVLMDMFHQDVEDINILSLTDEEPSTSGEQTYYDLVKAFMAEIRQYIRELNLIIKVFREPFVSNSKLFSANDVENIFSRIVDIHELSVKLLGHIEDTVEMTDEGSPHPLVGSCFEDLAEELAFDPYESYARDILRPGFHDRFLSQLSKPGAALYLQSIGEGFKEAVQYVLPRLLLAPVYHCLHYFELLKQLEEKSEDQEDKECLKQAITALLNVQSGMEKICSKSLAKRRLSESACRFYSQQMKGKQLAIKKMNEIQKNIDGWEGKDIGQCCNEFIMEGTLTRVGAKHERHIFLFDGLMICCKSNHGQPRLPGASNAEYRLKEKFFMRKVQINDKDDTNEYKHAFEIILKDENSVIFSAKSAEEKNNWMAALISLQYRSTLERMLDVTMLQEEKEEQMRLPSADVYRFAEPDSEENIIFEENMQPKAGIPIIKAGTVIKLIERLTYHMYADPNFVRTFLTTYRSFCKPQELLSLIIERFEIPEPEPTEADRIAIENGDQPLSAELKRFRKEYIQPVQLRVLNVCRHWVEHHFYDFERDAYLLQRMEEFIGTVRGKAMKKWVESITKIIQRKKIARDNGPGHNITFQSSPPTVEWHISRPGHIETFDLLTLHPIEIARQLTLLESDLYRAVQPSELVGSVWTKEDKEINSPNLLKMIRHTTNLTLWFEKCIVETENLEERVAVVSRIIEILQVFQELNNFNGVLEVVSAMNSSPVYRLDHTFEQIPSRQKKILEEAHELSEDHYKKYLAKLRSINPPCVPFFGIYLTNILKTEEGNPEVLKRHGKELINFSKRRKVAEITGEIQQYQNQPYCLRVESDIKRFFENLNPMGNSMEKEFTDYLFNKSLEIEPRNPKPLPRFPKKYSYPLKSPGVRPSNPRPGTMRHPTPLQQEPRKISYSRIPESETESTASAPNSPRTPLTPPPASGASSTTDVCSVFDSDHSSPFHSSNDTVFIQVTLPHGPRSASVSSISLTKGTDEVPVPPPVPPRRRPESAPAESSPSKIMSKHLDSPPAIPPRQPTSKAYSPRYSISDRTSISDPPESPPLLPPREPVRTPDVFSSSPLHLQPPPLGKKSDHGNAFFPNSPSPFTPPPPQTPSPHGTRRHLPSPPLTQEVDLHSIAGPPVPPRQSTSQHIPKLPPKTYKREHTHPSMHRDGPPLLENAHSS

SMILES | pIC50
C[C@@H](NC(=O)c1ccc(=O)n(-c2ccccc2F)n1)c1cccc(-n2ccc(=O)cc2)c1 [Example 304] | < 5.00
C[C@@H](NC(=O)c1ccc(=O)n(-c2ccccc2F)n1)c1cccc(Oc2ccccc2)c1 [Example 306, 1-(2-fluorophenyl)-6-oxo-N-[(1R)-1-(3-phenoxyphenyl)ethyl]pyridazine-3-carboxamide] | < 5.00
C[C@@H](NC(=O)c1nn(-c2cnn(C)c2)c(=O)c2cc[nH]c12)c1cc(N)cc(C(F)(F)F)c1 [Example 307, N-[(1R)-1-[3-amino-5-(trifluoromethyl)phenyl]ethyl]-5-(1-methylpyrazol-4-yl)-4-oxo-1H-pyrrolo[2,3-d]pyridazine-7-carboxamide] | > 6.00
C[C@@H](NC(=O)c1nn(-c2ccccc2)c(=O)c2cc[nH]c12)c1cc(N)cc(C(F)(F)F)c1 [Example 308, N-[(1R)-1-[3-amino-5-(trifluoromethyl)phenyl]ethyl]-4-oxo-5-phenyl-1H-pyrrolo [2,3-d] pyridazine-7-carboxamide] | > 6.00
C[C@@H](NC(=O)c1nn(-c2ccccc2F)c(=O)c2ccsc12)c1cc(N)cc(C(F)(F)F)c1 [Example 309, N-[(1R)-1-[3-amino-5-(trifluoromethyl)phenyl]ethyl]-5-(2-fluorophenyl)-4-oxo-thieno[2,3-d]pyridazine-7-carboxamide] | > 6.00
C[C@@H](NC(=O)c1nn(-c2ccccc2F)c(=O)c2ccsc12)c1cccc(C(F)(F)CO)c1F [Example 310, N-[(1R)-1-[3-(1,1-difluoro-2-hydroxy-ethyl)-2-fluoro-phenyl]ethyl]-5-(2-fluorophenyl)-4-oxo-thieno[2,3-d]pyridazine-7-carboxamide] | > 6.00
C[C@@H](NC(=O)c1nn(-c2cccnc2F)c(=O)c2ccsc12)c1cc(N)cc(C(F)(F)F)c1 [Example 311, N-[(1R)-1-[3-amino-5-(trifluoromethyl)phenyl]ethyl]-5-(2-fluoro-3-pyridyl)-4-oxo-thieno[2,3-d]pyridazine-7-carboxamide] | > 6.00
C[C@@H](NC(=O)c1nn(-c2ccccc2F)c(=O)c2sccc12)c1cc(N)cc(C(F)(F)F)c1 [Example 312, N-[(1R)-1-[3-amino-5-(trifluoromethyl)phenyl]ethyl]-6-(2-fluorophenyl)-7-oxo-thieno[2,3-d]pyridazine-4-carboxamide] | > 6.00
CC(=O)Nc1cc(=O)n(-c2ccccc2)nc1C(=O)N[C@H](C)c1cc(N)cc(C(F)(F)F)c1 [Example 313, 4-acetamido-N-[(1R)-1-[3-amino-5-(trifluoromethyl)phenyl]ethyl]-6-oxo-1-phenyl-pyridazine-3-carboxamide] | > 6.00
C[C@@H](NC(=O)c1nn(-c2ccccc2F)c(=O)c2cc[nH]c12)c1cccc(C(F)(F)CO)c1F [Example 314, N-[(1R)-1-[3-(1,1-difluoro-2-hydroxy-ethyl)-2-fluoro-phenyl]ethyl]-5-(2-fluorophenyl)-4-oxo-1H-pyrrolo[2,3-d]pyridazine-7-carboxamide] | > 6.00
C[C@@H](NC(=O)c1nn(-c2cnn(C)c2)c(=O)c2ccsc12)c1cc(N)cc(C(F)(F)F)c1 [Example 316, N-[(1R)-1-[3-amino-5-(trifluoromethyl)phenyl]ethyl]-5-(1-methylpyrazol-4-yl)-4-oxo-thieno[2,3-d]pyridazine-7-carboxamide] | > 6.00
C[C@@H](NC(=O)c1nn(-c2ccccc2)c(=O)c2ccsc12)c1cc(N)cc(C(F)(F)F)c1 [Example 317, N-[(1R)-1-[3-amino-5-(trifluoromethyl)phenyl]ethyl]-4-oxo-5-phenyl-thieno[2,3-d]pyridazine-7-carboxamide] | > 6.00
C[C@@H](NC(=O)c1ccc(=O)n(-c2cccc(-c3ncnn3C)c2)c1)c1cc(N)cc(C(F)(F)F)c1 [Example 318, N-[(1R)-1-[3-amino-5-(trifluoromethyl)phenyl]ethyl]-1-[3-(2-methyl-1,2,4-triazol-3-yl)phenyl]-6-oxo-pyridine-3-carboxamide] | > 6.00
Cc1nnc(-c2cccc(-n3nc(C(=O)N[C@H](C)c4cc(N)cc(C(F)(F)F)c4)ccc3=O)c2)o1 [Example 319, N-[(1R)-1-[3-amino-5-(trifluoromethyl)phenyl]ethyl]-1-[3-(5-methyl-1,3,4-oxadiazol-2-yl)phenyl]-6-oxo-pyridazine-3-carboxamide] | > 6.00

Second part, the compound after the results:

pIC50 | SMILES
> 6.00 | CNCc1cccc(F)c1-c1ccc([C@@H](C)NC(=O)c2ccc(=O)n(-c3cccnc3F)n2)s1 [Example 293, N-[(1R)-1-[5-[2-fluoro-6-(methylaminomethyl)phenyl]-2-thienyl]ethyl]-1-(2-fluoro-3-pyridyl)-6-oxo-pyridazine-3-carboxamide]
> 6.00 | CNCc1ccsc1-c1cccc([C@@H](C)NC(=O)c2ccc(=O)n(-c3ccccc3F)n2)c1 [Example 294, 1-(2-fluorophenyl)-N-[(1R)-1-[3-[3-(methylaminomethyl)-2-thienyl]phenyl]ethyl]-6-oxo-pyridazine-3-carboxamide]
> 6.00 | CNCc1ccc(F)cc1-c1ccc([C@@H](C)NC(=O)c2ccc(=O)n(-c3cnn(C)c3)n2)s1 [Example 296, N-[(1R)-1-[5-[5-fluoro-2-(methylaminomethyl)phenyl]-2-thienyl]ethyl]-1-(1-methylpyrazol-4-yl)-6-oxo-pyridazine-3-carboxamide]
> 6.00 | CNCc1ccc(F)cc1-c1ccc([C@@H](C)NC(=O)c2ccc(=O)n(-c3cccc(C(=O)N(C)C)c3F)n2)s1 [Example 297, 1-[3-(dimethylcarbamoyl)-2-fluoro-phenyl]-N-[(1R)-1-[5-[5-fluoro-2-(methylaminomethyl)phenyl]-2-thienyl]ethyl]-6-oxo-pyridazine-3-carboxamide]
> 6.00 | CNCc1ccccc1-c1ccc([C@@H](C)NC(=O)c2ccc(=O)n(-c3ccccc3F)n2)s1 [Example 298, 1-(2-fluorophenyl)-N-[(1R)-1-[5-[2-(methylaminomethyl)phenyl]-2-thienyl]ethyl]-6-oxo-pyridazine-3-carboxamide]
5.00 to 6.00 | C[C@@H](NC(=O)c1ccc(=O)n(-c2ccccc2F)n1)c1ccc(-c2ccccc2CO)s1 [Example 299, 1-(2-fluorophenyl)-N-[(1R)-1-[5-[2-(hydroxymethyl)phenyl]-2-thienyl]ethyl]-6-oxo-pyridazine-3-carboxamide]
> 6.00 | C[C@@H](NC(=O)c1ccc(=O)n(-c2ccccc2F)n1)c1ccc(-c2cc(F)ccc2CNCCO)s1 [Example 300, N-[(1R)-1-[5-[5-fluoro-2-[(2-hydroxyethylamino)methyl]phenyl]-2-thienyl]ethyl]-1-(2-fluorophenyl)-6-oxo-pyridazine-3-carboxamide]
> 6.00 | CNCc1ccc(Cl)cc1-c1ccc([C@@H](C)NC(=O)c2ccc(=O)n(C3CCN(C(C)=O)CC3)n2)s1 [Example 301, 1-(1-acetyl-4-piperidyl)-N-[(1R)-1-[5-[5-chloro-2-(methylaminomethyl)phenyl]-2-thienyl]ethyl]-6-oxo-pyridazine-3-carboxamide]
> 6.00 | CNCc1ccc(F)cc1-c1ccc([C@@H](C)NC(=O)c2ccc(=O)n(-c3cccnc3NC)n2)s1 [Example 302, N-[(1R)-1-[5-[5-fluoro-2-(methylaminomethyl)phenyl]-2-thienyl]ethyl]-1-[2-(methylamino)-3-pyridyl]-6-oxo-pyridazine-3-carboxamide]
< 5.00 | C[C@@H](NC(=O)c1ccc(=O)n(-c2ccccc2F)n1)c1cccc(-n2ccccc2=O)c1 [Example 303, 1-(2-fluorophenyl)-6-oxo-N-[(1R)-1-[3-(2-oxo-1-pyridyl)phenyl]ethyl]pyridazine-3-carboxamide]
< 5.00 | C[C@@H](NC(=O)c1ccc(=O)n(-c2ccccc2F)n1)c1cccc(Oc2cccnc2)c1 [Example 305, 1-(2-fluorophenyl)-6-oxo-N-[(1R)-1-[3-(3-pyridyloxy)phenyl]ethyl]pyridazine-3-carboxamide]
> 6.00 | C[C@@H](NC(=O)c1ccc(=O)n(-c2cccc(-c3cncn3C)c2)n1)c1cc(N)cc(C(F)(F)F)c1 [Example 320, N-[(1R)-1-[3-amino-5-(trifluoromethyl)phenyl]ethyl]-1-[3-(3-methylimidazol-4-yl)phenyl]-6-oxo-pyridazine-3-carboxamide]
